Test results reported in the NIST ThermoML archive (doi:10.1021/acs.jced.5b00845).
± gives the expanded uncertainty stated by the source.

Experiment: mn = molality of the nth substance listed, in mol/kg
Conditions: 100 kPa, Liquid, Capillary tube (Ostwald / Ubbelohde) method

OC[C@H]1O[C@@H](O[C@H]2[C@H](O)[C@@H](O)[C@H](O)O[C@@H]2CO)[C@H](O)[C@@H](O)[C@@H]1O [D-cellobiose] + O
viscosity [mPa·s]
Conditions	m1 = 0.0502	m1 = 0.06216	m1 = 0.07229	m1 = 0.08229	m1 = 0.09269	m1 = 0.1031	m1 = 0.1292	m1 = 0.152
288.15 K	1.19 ± 0.12	1.202 ± 0.12	1.212 ± 0.12	1.222 ± 0.12	1.233 ± 0.12	1.243 ± 0.12	1.269 ± 0.13	1.291 ± 0.13
298.15 K	0.929 ± 0.093	0.938 ± 0.094	0.946 ± 0.095	0.953 ± 0.095	0.961 ± 0.096	0.969 ± 0.097	0.988 ± 0.099	1.005 ± 0.1
308.15 K	0.749 ± 0.075	0.756 ± 0.076	0.762 ± 0.076	0.768 ± 0.077	0.774 ± 0.078	0.78 ± 0.078	0.795 ± 0.08	0.808 ± 0.081
318.15 K	0.62 ± 0.062	0.625 ± 0.063	0.63 ± 0.063	0.635 ± 0.064	0.64 ± 0.064	0.644 ± 0.065	0.656 ± 0.066	0.666 ± 0.067

O=C[C@H](O)[C@@H](O)[C@H](O)[C@H](O)CO [D-glucose] + O
viscosity [mPa·s]
Conditions	m1 = 0.05335	m1 = 0.06616	m1 = 0.08424	m1 = 0.1038	m1 = 0.1142	m1 = 0.1323
288.15 K	1.167 ± 0.12	1.175 ± 0.12	1.185 ± 0.12	1.196 ± 0.12	1.202 ± 0.12	1.211 ± 0.12
298.15 K	0.912 ± 0.091	0.918 ± 0.092	0.924 ± 0.093	0.932 ± 0.093	0.936 ± 0.094	0.943 ± 0.094
308.15 K	0.736 ± 0.074	0.74 ± 0.074	0.744 ± 0.075	0.75 ± 0.075	0.754 ± 0.076	0.759 ± 0.076
318.15 K	0.609 ± 0.061	0.612 ± 0.061	0.616 ± 0.062	0.621 ± 0.062	0.623 ± 0.062	0.628 ± 0.063

O=C[C@@H](O)[C@@H](O)[C@H](O)[C@H](O)CO [D-mannose] + O
viscosity [mPa·s]
Conditions	m1 = 0.0537	m1 = 0.07266	m1 = 0.08053	m1 = 0.08978	m1 = 0.1058	m1 = 0.1176
288.15 K	1.169 ± 0.12	1.179 ± 0.12	1.184 ± 0.12	1.189 ± 0.12	1.199 ± 0.12	1.206 ± 0.12
298.15 K	0.912 ± 0.091	0.92 ± 0.092	0.924 ± 0.093	0.928 ± 0.093	0.934 ± 0.094	0.939 ± 0.094
308.15 K	0.736 ± 0.074	0.741 ± 0.074	0.744 ± 0.075	0.747 ± 0.075	0.753 ± 0.075	0.756 ± 0.076
318.15 K	0.609 ± 0.061	0.614 ± 0.062	0.616 ± 0.062	0.618 ± 0.062	0.622 ± 0.062	0.625 ± 0.063

OC[C@H]1O[C@H](OC[C@H]2O[C@H](O[C@]3(CO)O[C@H](CO)[C@@H](O)[C@@H]3O)[C@H](O)[C@@H](O)[C@@H]2O)[C@H](O)[C@@H](O)[C@H]1O [D-raffinose] + O
viscosity [mPa·s]
Conditions	m1 = 0.0515	m1 = 0.06262	m1 = 0.08002	m1 = 0.09691	m1 = 0.1085	m1 = 0.1133	m1 = 0.1273	m1 = 0.1387
288.15 K	1.227 ± 0.12	1.246 ± 0.12	1.275 ± 0.13	1.303 ± 0.13	1.322 ± 0.13	1.33 ± 0.13	1.353 ± 0.14	1.371 ± 0.14
298.15 K	0.957 ± 0.096	0.971 ± 0.097	0.993 ± 0.099	1.014 ± 0.1	1.028 ± 0.1	1.034 ± 0.1	1.051 ± 0.11	1.065 ± 0.11
308.15 K	0.771 ± 0.077	0.782 ± 0.078	0.799 ± 0.08	0.816 ± 0.082	0.827 ± 0.083	0.831 ± 0.083	0.845 ± 0.085	0.855 ± 0.086
318.15 K	0.637 ± 0.064	0.646 ± 0.065	0.659 ± 0.066	0.672 ± 0.067	0.681 ± 0.068	0.684 ± 0.069	0.695 ± 0.07	0.703 ± 0.07

O=C[C@H](O)[C@H](O)[C@H](O)CO [D-ribose] + O
viscosity [mPa·s]
Conditions	m1 = 0.05682	m1 = 0.06586	m1 = 0.07814	m1 = 0.09455	m1 = 0.1051	m1 = 0.1285
288.15 K	1.159 ± 0.12	1.163 ± 0.12	1.168 ± 0.12	1.174 ± 0.12	1.178 ± 0.12	1.187 ± 0.12
298.15 K	0.906 ± 0.091	0.909 ± 0.091	0.912 ± 0.091	0.917 ± 0.092	0.919 ± 0.092	0.926 ± 0.093
308.15 K	0.731 ± 0.073	0.733 ± 0.073	0.736 ± 0.074	0.739 ± 0.074	0.741 ± 0.074	0.746 ± 0.075
318.15 K	0.605 ± 0.061	0.607 ± 0.061	0.609 ± 0.061	0.612 ± 0.061	0.614 ± 0.062	0.618 ± 0.062

OC[C@H]1O[C@@](CO)(O[C@H]2O[C@H](CO)[C@@H](O)[C@H](O)[C@H]2O)[C@@H](O)[C@@H]1O [D-sucrose] + O
viscosity [mPa·s]
Conditions	m1 = 0.05768	m1 = 0.06994	m1 = 0.07682	m1 = 0.08384	m1 = 0.09221	m1 = 0.1103	m1 = 0.1237	m1 = 0.1437
288.15 K	1.205 ± 0.12	1.219 ± 0.12	1.227 ± 0.12	1.235 ± 0.12	1.244 ± 0.12	1.265 ± 0.13	1.28 ± 0.13	1.302 ± 0.13
298.15 K	0.941 ± 0.094	0.951 ± 0.095	0.957 ± 0.096	0.963 ± 0.096	0.97 ± 0.097	0.986 ± 0.099	0.997 ± 0.1	1.014 ± 0.1
308.15 K	0.758 ± 0.076	0.766 ± 0.077	0.771 ± 0.077	0.776 ± 0.078	0.781 ± 0.078	0.793 ± 0.079	0.802 ± 0.08	0.815 ± 0.082
318.15 K	0.627 ± 0.063	0.634 ± 0.064	0.637 ± 0.064	0.641 ± 0.064	0.645 ± 0.065	0.655 ± 0.066	0.662 ± 0.066	0.672 ± 0.067
